Reference: patent publication US6372774B1, “Derivatives of N-phenylpyrazoles” (Rhone-Poulenc Agriculture Ltd., priority 1985, dated 2002)

Legend:
Format in all cases: in vivo
[1] = tested on: Spodoptera littoralis (Egyptian Cotton Worm); experiment: Test 2: leaf disc spray test, Spodoptera littoralis larvae; details: foliar, application of 500 ppm, 2nd instar larvae on French bean leaf discs, sprayed
From the text: One or more of the dilutions of the compounds to be tested were made in 50% aqueous acetone.
Test species: Spodoptera littoralis (Egyptian Cotton Worm)
French bean leaf discs were set in agar in petri dishes and infected with 5 2nd instar larvae. Four replicate dishes were assigned to each treatment and were sprayed under a Potter Tower with the appropriate test dilution. After 2 days, live larvae were transferred to similar dishes containing untreated leaves set in agar. Two or three days later, the dishes were removed from the constant temperature (25° C.) room in which they had been held and the mean percentage mortalities of larvae were determined.

Periplaneta americana = experiment: Test 5: injection into cockroaches; details: dose of 5 micrograms/g insect body weight, injected in acetone; five days after treatment
Experimental: 0.2 microliters of an acetone solution of the compound was injected through the soft cuticle between the leg and thorax of ten insects, to give a dose rate of 5 micrograms per g of insect body weight. Ten cockroaches were similarity injected with 0.2 microliters of acetone alone to serve as controls. After treatment the insects were held in plastic boxes with appropriate food. Five days after treatment the numbers of dead and alive insects were counted and percentage mortalities calculated.

[2] = tested on: Phaedon cochleariae (Mustard Beetle); experiment: Test 3 a): leaf disc spray test, Phaedon cochleariae larvae; details: Phaedon cochleariae, foliar, read-out: Phaedon % m 10 ppm
Procedure, shortened: (§1)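 Compounds were diluted in 50% aqueous acetone and sprayed in a Potter Tower onto turnip leaf discs in agar, each infested with 10 larvae (2nd instar Plutella, 3rd instar Phaedon), with four replicates per treatment. Mean percentage larval mortality was scored 4–5 days later at 25 °C.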

[3] = tested on: Plutella xylostella (Diamond-back Moth); experiment: whole plant or invertebrate; details: foliar, read-out: Plutella % m 500 ppm
Procedure, shortened: as §1

SMILES: Nc1c([N+](=O)[O-])c(Cl)nn1-c1c(Cl)cc(C(F)(F)F)cc1Cl [Compound 106, 5-Amino-3-chloro-1-(2,6-dichloro-4-trifluoromethylphenyl)-4-nitropyrazole]
- mortality at 500 ppm [1]: ≥ 70%

SMILES: CC(=O)Nc1c([N+](=O)[O-])c(C#N)nn1-c1c(Cl)cc(C(F)(F)F)cc1Cl [Compound 104, 5-Acetamido-3-cyano-1-(2,6-dichloro-4-trifluoromethylphenyl)-4-nitropyrazole]
- mortality at 500 ppm [1]: ≥ 70%

SMILES: CC(=O)Nc1c([N+](=O)[O-])c(Cl)nn1-c1c(Cl)cc(C(F)(F)F)cc1Cl [Compound 103, 5-Acetamido-3-chloro-1-(2,6-dichloro-4-trifluoromethylphenyl)-4-nitropyrazole]
- mortality at 500 ppm [1]: ≥ 70%

SMILES: N#Cc1nn(-c2c(Cl)cc(C(F)(F)F)cc2Cl)c(NC(=O)C2CC2)c1C#N [Compound 122, 5-Cyclopropylcarbonamido-1-(2,6-dichloro-4-trifluoromethylphenyl)-3,4-dicyanopyrazole]
- mortality of Periplaneta americana (Periplaneta americana): 100%

SMILES: N#Cc1nn(-c2c(Cl)cc(C(F)(F)F)cc2Cl)c(N)c1C#N [Compound 110, 5-Amino-1-(2,6-dichloro-4-trifluoromethylphenyl)-3,4-dicyanopyrazole]
- pest or weed control at 10 ppm [2]: 100%
- pest or weed control at 500 ppm [3]: 89%
- mortality of Periplaneta americana (Periplaneta americana): 100%

SMILES: Nc1c([N+](=O)[O-])c(Br)nn1-c1c(Cl)cc(C(F)(F)F)cc1Cl [Compound 105, 5-Amino-3-bromo-1-(2,6-dichloro-4-trifluoromethylphenyl)-4-nitropyrazole]
- mortality at 500 ppm [1]: ≥ 70%

SMILES: N#Cc1nn(-c2c(Cl)cc(C(F)(F)F)cc2Cl)c(N)c1[N+](=O)[O-] [Compound 107, 5-Amino-3-cyano-1-(2,6-dichloro-4-trifluoromethylphenyl)-4-nitropyrazole]
- mortality at 500 ppm [1]: ≥ 70%

SMILES: CC(=O)Nc1c([N+](=O)[O-])c(Br)nn1-c1c(Cl)cc(C(F)(F)F)cc1Cl [Compound 102, 5-Acetamido-3-bromo-1-(2,6-dichloro-4-trifluoromethylphenyl)-4-nitropyrazole]
- mortality at 500 ppm [1]: ≥ 70%

SMILES: N#Cc1nn(-c2ccc(C(F)(F)F)cc2Cl)c(N)c1C#N [Compound 125, 5-Amino-1-(2-chloro-4-trifluoromethylphenyl)-3,4-dicyanopyrazole]
- mortality of Periplaneta americana (Periplaneta americana): 100%
